Source: PMC12951562, “SH2scan: Mapping SH2 Domain-Ligand Binding Selectivity for Inhibitors and Degraders” (Journal of Medicinal Chemistry, 2026)
Read-outs that look alike come from different tables or passages of the source. Non-standard residues stand in square brackets, D forms with d. Residues, ends and D or L forms follow the SMILES beside them. *: point of attachment. pY = N[C@@H](Cc1ccc(OP(=O)(O)O)cc1)C(=O)O; Caffeoyl = O=C(/C=C/c1ccc(O)c(O)c1)*

Legend:
Experiment in all cases: biochemical
Assay type in all cases: binding
[1] = molecular target: T1, CRKL (Homo sapiens, UniProt P46109); settings: for remaining activity at 10 µM / percent of DMSO vehicle control at 10 µM: read-out: percent of DMSO vehicle control
T1 construct: the DNA-tagged SH2 domain concentrations used in this study were <0.1 nM; made in house; host or cells: HEK293 (transient transfection; unpurified extract)
T1 sequence (P46109 14-102 limits assumed): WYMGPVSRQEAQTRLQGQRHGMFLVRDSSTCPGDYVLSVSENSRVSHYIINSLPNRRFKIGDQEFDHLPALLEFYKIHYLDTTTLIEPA

[2] = molecular target: T2, BLK (Homo sapiens, UniProt P51451); settings: for remaining activity at 10 µM: read-out: percent of DMSO vehicle control
T2 construct: the DNA-tagged SH2 domain concentrations used in this study were <0.1 nM; made in house; host or cells: HEK293 (transient transfection; unpurified extract)
T2 sequence (P51451 124-220 limits assumed): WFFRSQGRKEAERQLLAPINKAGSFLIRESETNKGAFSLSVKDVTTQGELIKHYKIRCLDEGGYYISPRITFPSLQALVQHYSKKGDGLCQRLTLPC

[3] = molecular target: T3, STAT4 (Homo sapiens, UniProt Q14765); settings: for percent of DMSO vehicle control: primary screen, 10 μM
T3 construct: made in house; host or cells: HEK293 (transient transfection), unpurified extract
T3 sequence (Q14765 1-748): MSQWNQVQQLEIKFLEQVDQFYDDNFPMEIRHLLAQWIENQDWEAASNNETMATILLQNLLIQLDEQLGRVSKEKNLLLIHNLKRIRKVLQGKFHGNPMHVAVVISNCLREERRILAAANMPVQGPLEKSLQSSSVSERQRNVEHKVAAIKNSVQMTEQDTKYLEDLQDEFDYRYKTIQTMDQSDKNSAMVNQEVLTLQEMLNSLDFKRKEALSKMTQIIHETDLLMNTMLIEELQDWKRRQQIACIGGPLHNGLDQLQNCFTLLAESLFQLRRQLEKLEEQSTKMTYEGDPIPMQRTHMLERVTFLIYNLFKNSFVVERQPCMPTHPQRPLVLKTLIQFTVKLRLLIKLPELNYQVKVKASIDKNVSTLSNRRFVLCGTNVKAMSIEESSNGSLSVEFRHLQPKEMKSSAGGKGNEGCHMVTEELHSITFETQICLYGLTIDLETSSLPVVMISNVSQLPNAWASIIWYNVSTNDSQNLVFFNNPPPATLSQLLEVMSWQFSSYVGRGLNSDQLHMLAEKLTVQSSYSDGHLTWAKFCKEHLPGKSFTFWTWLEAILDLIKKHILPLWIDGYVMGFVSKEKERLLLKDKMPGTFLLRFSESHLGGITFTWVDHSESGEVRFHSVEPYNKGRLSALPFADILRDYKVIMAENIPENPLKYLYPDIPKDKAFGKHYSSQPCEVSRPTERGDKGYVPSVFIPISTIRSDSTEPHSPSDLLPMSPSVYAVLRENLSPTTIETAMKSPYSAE

[4] = molecular target: T4, SHC1 (Homo sapiens, UniProt P29353); settings: for remaining activity at 10 µM: read-out: percent of DMSO vehicle control
T4 construct: made in house; host or cells: HEK293 (transient transfection), unpurified extract
T4 sequence (P29353 1-583): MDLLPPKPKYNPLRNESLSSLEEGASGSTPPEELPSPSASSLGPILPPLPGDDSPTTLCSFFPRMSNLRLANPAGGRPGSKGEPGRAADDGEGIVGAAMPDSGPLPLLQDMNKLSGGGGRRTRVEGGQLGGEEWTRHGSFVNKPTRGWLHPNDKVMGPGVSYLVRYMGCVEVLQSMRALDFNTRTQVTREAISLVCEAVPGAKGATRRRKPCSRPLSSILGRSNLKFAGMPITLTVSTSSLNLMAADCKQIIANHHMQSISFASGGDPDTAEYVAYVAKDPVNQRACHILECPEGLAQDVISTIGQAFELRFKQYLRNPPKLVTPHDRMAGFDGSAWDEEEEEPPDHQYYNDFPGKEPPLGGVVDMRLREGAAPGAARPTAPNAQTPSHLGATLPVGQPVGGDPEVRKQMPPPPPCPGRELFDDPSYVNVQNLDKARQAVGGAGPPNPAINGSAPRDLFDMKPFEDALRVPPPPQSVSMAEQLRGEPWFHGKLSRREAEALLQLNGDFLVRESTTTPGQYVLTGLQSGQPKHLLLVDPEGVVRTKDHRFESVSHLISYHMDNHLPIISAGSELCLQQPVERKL

[5] = molecular target: T5, BRK (Homo sapiens, UniProt Q13882); settings: for remaining activity at 10 µM: read-out: percent of DMSO vehicle control; for KD: dose-response
T5 construct: the DNA-tagged SH2 domain concentrations used in this study were <0.1 nM; made in house; host or cells: HEK293 (transient transfection; unpurified extract)
T5 sequence (Q13882 78-170 limits assumed): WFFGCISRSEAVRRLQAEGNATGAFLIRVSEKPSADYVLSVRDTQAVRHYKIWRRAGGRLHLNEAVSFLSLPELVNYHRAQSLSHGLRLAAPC

[6] = molecular target: T6, SOCS4 (Homo sapiens, UniProt Q8WXH5); settings: for remaining activity at 10 µM: read-out: percent of DMSO vehicle control
T6 construct: made in house; host or cells: HEK293 (transient transfection), unpurified extract
T6 sequence (Q8WXH5 1-440): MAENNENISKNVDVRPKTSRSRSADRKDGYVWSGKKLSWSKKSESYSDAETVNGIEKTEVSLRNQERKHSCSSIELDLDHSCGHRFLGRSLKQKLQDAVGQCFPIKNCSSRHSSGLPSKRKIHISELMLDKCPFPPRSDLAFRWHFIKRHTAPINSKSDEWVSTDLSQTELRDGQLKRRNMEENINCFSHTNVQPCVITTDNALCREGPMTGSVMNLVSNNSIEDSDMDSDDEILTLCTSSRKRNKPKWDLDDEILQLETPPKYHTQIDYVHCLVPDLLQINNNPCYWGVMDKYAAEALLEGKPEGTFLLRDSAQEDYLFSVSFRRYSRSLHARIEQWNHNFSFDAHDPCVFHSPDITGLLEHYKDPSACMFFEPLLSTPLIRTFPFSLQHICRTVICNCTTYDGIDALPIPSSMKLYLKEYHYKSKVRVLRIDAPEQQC

[7] = molecular target: T7, PLCG1(SH2dom.C-term.) (Homo sapiens, UniProt P19174); settings: for remaining activity at 10 µM: read-out: percent of DMSO vehicle control
T7 construct: SH2dom.C-term. denotes SH2 domain closest to C-terminus of protein; made in house; host or cells: HEK293 (transient transfection, unpurified extract)
T7 sequence (P19174 668-756 limits assumed): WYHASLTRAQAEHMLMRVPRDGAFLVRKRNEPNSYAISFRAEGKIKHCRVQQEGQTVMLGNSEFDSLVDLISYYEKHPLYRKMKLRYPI

SMILES	remaining activity at 10 µM ([1]; primary screen, 10 μM) [%]	remaining activity at 10 µM ([2]; primary screen, 10 μM) [%]	percent of DMSO vehicle control [3] [%]	remaining activity at 10 µM ([4]; primary screen, 10 μM) [%]	remaining activity at 10 µM ([5]; primary screen, 10 μM) [%]	Kd ([6]; dose-response, read-out: KD) [nM]	remaining activity at 10 µM ([6]; primary screen, 10 μM) [%]	remaining activity at 10 µM ([7]; primary screen, 10 μM) [%]	percent of DMSO vehicle control at 10 µM [1] [%]	remaining activity at 10 µM [2] [%]	remaining activity at 10 µM [4] [%]	remaining activity at 10 µM [5] [%]	remaining activity at 10 µM [6] [%]	remaining activity at 10 µM [7] [%]	KD [5]	also measured
O=C(CCl)Nc1cccc(CNC(=O)[C@H](Cc2ccc(OP(=O)(O)O)cc2)NC(=O)Cc2ccc(F)cc2)c1 [MN551]	202	116	22±0.8	112	4.7 ± 0.7	64	9.6 ± 3.9	64.1 ± 4.5	–	–	–	–	–	–	–	KD ([3]; dose-response): No Hit
CC[C@H](C)[C@H](NC(=O)[C@H](CCC(=O)O)NC(=O)[C@H](CCC(=O)O)NC(=O)[C@H](Cc1ccc(OP(=O)(O)O)cc1)NC(C)=O)C(=O)N[C@@H](CCC(=O)O)C(N)=O [Ac-pYEEIE-NH2] (Ac-[pY]EEIE-NH2)	–	–	106.6	–	–	–	–	–	–	–	–	–	–	–	–	percent of DMSO vehicle control ([1]; primary screen, 10 μM): 131.3%; percent of DMSO vehicle control ([2]; primary screen, 10 μM): 47.8%; percent of DMSO vehicle control ([4]; primary screen, 10 μM): 105.0%; percent of DMSO vehicle control ([5]; primary screen, 10 μM): 101.4%; percent of DMSO vehicle control ([6]; primary screen, 10 μM): 32.2%; percent of DMSO vehicle control ([7]; primary screen, 10 μM): 37.9±3.6%
CC(=O)N1CC[C@H]2CC[C@@H](C(=O)N[C@@H](CCC(N)=O)C(=O)NC(c3ccccc3)c3ccccc3)N2C(=O)[C@@H](NC(=O)c2cc3cc(C(F)(F)P(=O)(O)O)ccc3[nH]2)C1 [SI-109]	–	–	7.3±0.1	–	–	–	–	–	125	105	112	124	123	98 ± 1.4	–	Kd [3]: 240 ± 106 nM
CC(=O)N[C@@H](Cc1ccc(CP(=O)(O)O)cc1)C(=O)NC1(C(=O)N[C@@H](CC(N)=O)C(=O)NCCCc2c(O)ccc3ccccc23)CCCCC1 [CGP78850]	–	–	91.4±14.0	–	–	–	–	–	36.4 ± 18.5	42.1 ± 4.6	49.8 ± 6.2	117 ± 12.5	101 ± 1.6	96.8 ± 4.1	–	–
CC[C@H](C)[C@H](NC(=O)[C@H](CCC(=O)O)NC(=O)[C@H](CCC(=O)O)NC(=O)[C@H](Cc1ccc(OP(=O)(O)O)cc1)NC(=O)/C=C/c1ccc(O)c(O)c1)C(=O)N[C@@H](CCC(=O)O)C(=O)O [Caffeic acid-pYEEIE] (Caffeoyl-[pY]EEIE-OH)	–	–	8.8±0.4	–	–	–	–	–	42.1 ± 6	0.1	0	0	2.5 ± 0.1	0	–	Kd [2]: 1.5 ± 0.69 nM; Kd [3]: 4400 ± 370 nM; Kd [4]: 320 ± 280 nM; Kd [5]: 24 ± 3.9 nM; Kd [6]: 1500 ± 810 nM; Kd [7]: 14 ± 11 nM
NC(=O)CC[C@H](NC(=O)[C@@H]1CC[C@@H]2CCN(C(=O)CCCCCC#Cc3cccc4c3CN(C3CCC(=O)NC3=O)C4=O)C[C@H](NC(=O)c3cc4cc(C(F)(F)P(=O)(O)O)ccc4[nH]3)C(=O)N21)C(=O)NC(c1ccccc1)c1ccccc1 (stereo partly drawn) [SD-36]	–	–	1.1±0.2	–	–	–	–	–	119	70.6 ± 5.9	62 ± 8.8	76.9 ± 3.5	30 ± 17.2	85.7 ± 0.8	–	Kd ([3]; dose-response): 120 ± 110 nM; Kd ([6]; dose-response): 5900 nM
CC(C)(C)[C@H](NC(=O)/C=C/c1ccc(OP(=O)(O)O)cc1)C(=O)N1CCC[C@H]1C(=O)N(c1ccccc1)c1ccc(I)cc1 [STAT6-IN-3]	102 ± 19.9	67.6 ± 11	0.2±0.3	62.5 ± 13.9	4.1 ± 47.5	10	0	24.7 ± 7	–	–	–	–	–	–	No Hit	Kd ([3]; dose-response, read-out: KD): 520 ± 270 nM; Kd ([7]; dose-response, read-out: KD): 3800 ± 280 nM
C/C(=C\C(=O)N[C@H](C(=O)N1CCC[C@H]1C(=O)N(c1ccccc1)c1ccc(I)cc1)C(C)(C)C)c1ccc(OP(=O)(O)O)cc1 [STAT6-IN-1]	42.4 ± 0.9	49.1 ± 3.4	0.0±0.0	48.2 ± 4.5	3 ± 0.4	13	0	1.5 ± 2.1	–	–	–	–	–	–	No Hit	Kd ([3]; dose-response, read-out: KD): 220 ± 67 nM; Kd ([7]; dose-response, read-out: KD): 2050 ± 210 nM
O=C(COc1ccc2cc(C(=O)Nc3ccccc3)ccc2c1)NCc1ccc(OP(=O)(O)O)c(OP(=O)(O)O)c1 [Stafib-1]	120	91.8 ± 35.5	57.6±15.3	67.3 ± 22.1	5.4 ± 60.2	3900 ± 870	25.5 ± 12.4	78.8 ± 17.8	–	–	–	–	–	–	No Hit	–
